Patent US20110189251A1, “COMPOUNDS AND COMPOSITIONS FOR THE CONTROL OF PESTS” (priority 2007, published 2011)

How the values were obtained:
[1] = tested on: Eastern subterranean termite, Reticulitermes flavipes; assay: Killing activity in termites, compound pipetted onto back; type: in vivo; details: adults, 1 μL
[2] = tested on: adult German cockroaches, Blattella germanica; assay: Insecticidal action, time-to-death of adult German cockroaches after 10 μL on the back; type: in vivo; details: regardless of male or female
Protocol: Material and Methods: Ten μL of either BioUD 10, pure 2-Undecanone, or Raid were separately applied to the backs (thorax and wings) of adult German cockroaches, Blattella germanica. Insects were separately placed into FLUON®-treated diet cups (Vol.=30 mL, lower diam.=3 cm, height=4 cm) to prevent escape of treated specimens.

CCCCCCCCCC(C)=O [2-Undecanone, 2-undecanone]
Time-to-death (sec), mean ([1]; castes w and s together): 171.5 s
Time-to-death ([1]; caste s, single insects): 146 s
speed of kill relative to the formulated product (BioUD10) [2]: ~2 ×
